According to ChEMBL document CHEMBL1782045, “Discovery, synthesis, and investigation of the antitumor activity of novel piperazinylpyrimidine derivatives” (Eur J Med Chem, 2011):

How the values were obtained:
[1] = target: Casein kinase I isoform delta (Homo sapiens) (UniProt P48730); test: Inhibition of human CSNK1D using gamma-33P-ATP as substrate assessed as enzyme functional activity at 1 uM by scintillation counting relative to untreated control; parameters: scale not given: the % may be the effect or the level left
Sequence of Casein kinase I isoform delta (Homo sapiens) (P48730 whole entry, looked up, canonical isoform): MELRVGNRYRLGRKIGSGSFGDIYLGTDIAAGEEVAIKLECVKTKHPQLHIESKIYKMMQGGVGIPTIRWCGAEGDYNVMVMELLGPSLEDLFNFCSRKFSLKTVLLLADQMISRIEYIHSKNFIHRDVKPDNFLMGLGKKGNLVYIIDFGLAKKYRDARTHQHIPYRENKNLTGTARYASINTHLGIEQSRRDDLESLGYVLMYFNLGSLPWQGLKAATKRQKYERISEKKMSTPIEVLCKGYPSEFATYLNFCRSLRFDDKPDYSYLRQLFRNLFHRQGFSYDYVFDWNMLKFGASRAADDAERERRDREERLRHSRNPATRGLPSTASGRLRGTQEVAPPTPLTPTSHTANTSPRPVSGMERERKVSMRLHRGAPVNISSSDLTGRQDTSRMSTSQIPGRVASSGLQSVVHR

NCI-H226 = test: Growth inhibition of human NCI-H226 cells after 48 hrs by sulforhodamine B assay; assay type: functional; conditions: NCI-H226, 48 h
[2] = target: Hepatocyte growth factor receptor (Homo sapiens, UniProt P08581); test: Inhibition of human MET using gamma-33P-ATP as substrate assessed as enzyme functional activity at 1 uM by scintillation counting relative to untreated control; parameters: scale not given: the % may be the effect or the level left
Sequence of Hepatocyte growth factor receptor (P08581 whole entry): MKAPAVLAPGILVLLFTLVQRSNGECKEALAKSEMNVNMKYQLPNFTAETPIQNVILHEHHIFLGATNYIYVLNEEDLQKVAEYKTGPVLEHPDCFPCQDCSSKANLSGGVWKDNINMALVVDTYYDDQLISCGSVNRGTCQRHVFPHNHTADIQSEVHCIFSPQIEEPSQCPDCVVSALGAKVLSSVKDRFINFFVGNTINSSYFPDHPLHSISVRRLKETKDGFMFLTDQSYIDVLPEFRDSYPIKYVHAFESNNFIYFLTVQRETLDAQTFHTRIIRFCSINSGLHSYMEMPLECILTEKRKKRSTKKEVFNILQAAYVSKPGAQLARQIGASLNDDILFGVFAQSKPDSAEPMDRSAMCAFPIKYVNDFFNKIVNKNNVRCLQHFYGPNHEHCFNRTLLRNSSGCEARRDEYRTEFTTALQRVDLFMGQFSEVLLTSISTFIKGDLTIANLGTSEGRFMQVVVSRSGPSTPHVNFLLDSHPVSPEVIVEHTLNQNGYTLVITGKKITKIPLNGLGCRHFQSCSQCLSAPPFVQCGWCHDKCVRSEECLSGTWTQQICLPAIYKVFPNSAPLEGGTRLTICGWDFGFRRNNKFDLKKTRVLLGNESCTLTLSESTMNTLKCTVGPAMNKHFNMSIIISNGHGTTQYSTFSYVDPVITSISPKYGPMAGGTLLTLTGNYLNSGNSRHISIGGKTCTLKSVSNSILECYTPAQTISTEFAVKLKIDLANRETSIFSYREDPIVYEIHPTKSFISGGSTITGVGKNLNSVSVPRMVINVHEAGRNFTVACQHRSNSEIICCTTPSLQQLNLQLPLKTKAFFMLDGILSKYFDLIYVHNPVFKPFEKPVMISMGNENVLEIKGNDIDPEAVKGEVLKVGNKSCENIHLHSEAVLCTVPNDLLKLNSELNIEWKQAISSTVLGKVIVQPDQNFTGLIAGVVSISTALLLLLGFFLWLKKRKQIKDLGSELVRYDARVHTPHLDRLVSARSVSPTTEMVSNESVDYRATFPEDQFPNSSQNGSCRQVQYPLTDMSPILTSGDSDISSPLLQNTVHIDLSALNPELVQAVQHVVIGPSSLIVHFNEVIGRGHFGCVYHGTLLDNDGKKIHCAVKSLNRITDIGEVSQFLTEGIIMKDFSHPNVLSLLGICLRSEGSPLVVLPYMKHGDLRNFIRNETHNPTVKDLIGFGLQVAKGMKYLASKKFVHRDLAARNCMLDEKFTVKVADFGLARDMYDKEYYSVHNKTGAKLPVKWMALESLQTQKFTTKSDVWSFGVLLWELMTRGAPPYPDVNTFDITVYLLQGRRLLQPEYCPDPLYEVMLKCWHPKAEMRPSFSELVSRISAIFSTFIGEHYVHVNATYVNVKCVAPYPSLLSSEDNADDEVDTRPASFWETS

U-251 = test: Cytotoxicity against human U251 cells after 48 hrs by sulforhodamine B assay; assay type: cell-based; conditions: u-251, 48 h
A498 = test: Cytotoxicity against human A498 cells after 48 hrs by sulforhodamine B assay; assay type: cell-based; conditions: a498, 48 h
MCF7 = test: Cytotoxicity against human MCF7 cells after 48 hrs by sulforhodamine B assay; assay type: cell-based; conditions: mcf7, 48 h
[3] = target: Casein kinase I isoform delta (Homo sapiens) (UniProt P48730); test: Binding affinity to human CSNK1D at 10 uM incubated for 1 hr by kinase binding assay relative to untreated control
RXF 393 = test: Cytotoxicity against human RXF393 cells after 48 hrs by sulforhodamine B assay; assay type: cell-based; conditions: rxf 393, 48 h
SNB-75 = test: Cytotoxicity against human SNB75 cells after 48 hrs by sulforhodamine B assay; assay type: cell-based; conditions: snb-75, 48 h
SF-268 = test: Growth inhibition of human SF268 cells after 48 hrs by sulforhodamine B assay; assay type: functional; conditions: SF-268, 48 h
TK-10 = test: Cytotoxicity against human TK10 cells after 48 hrs by sulforhodamine B assay; assay type: cell-based; conditions: tk-10, 48 h
[4] = system: Platelet-derived growth factor receptor alpha (Homo sapiens), P16234 [V561D]; test: Inhibition of human PDGFRA V561D using gamma-33P-ATP as substrate assessed as enzyme functional activity at 1 uM by scintillation counting relative to untreated control; parameters: scale not given: the % may be the effect or the level left
Sequence of Platelet-derived growth factor receptor alpha (Homo sapiens), P16234 [V561D] (P16234 whole entry V561D): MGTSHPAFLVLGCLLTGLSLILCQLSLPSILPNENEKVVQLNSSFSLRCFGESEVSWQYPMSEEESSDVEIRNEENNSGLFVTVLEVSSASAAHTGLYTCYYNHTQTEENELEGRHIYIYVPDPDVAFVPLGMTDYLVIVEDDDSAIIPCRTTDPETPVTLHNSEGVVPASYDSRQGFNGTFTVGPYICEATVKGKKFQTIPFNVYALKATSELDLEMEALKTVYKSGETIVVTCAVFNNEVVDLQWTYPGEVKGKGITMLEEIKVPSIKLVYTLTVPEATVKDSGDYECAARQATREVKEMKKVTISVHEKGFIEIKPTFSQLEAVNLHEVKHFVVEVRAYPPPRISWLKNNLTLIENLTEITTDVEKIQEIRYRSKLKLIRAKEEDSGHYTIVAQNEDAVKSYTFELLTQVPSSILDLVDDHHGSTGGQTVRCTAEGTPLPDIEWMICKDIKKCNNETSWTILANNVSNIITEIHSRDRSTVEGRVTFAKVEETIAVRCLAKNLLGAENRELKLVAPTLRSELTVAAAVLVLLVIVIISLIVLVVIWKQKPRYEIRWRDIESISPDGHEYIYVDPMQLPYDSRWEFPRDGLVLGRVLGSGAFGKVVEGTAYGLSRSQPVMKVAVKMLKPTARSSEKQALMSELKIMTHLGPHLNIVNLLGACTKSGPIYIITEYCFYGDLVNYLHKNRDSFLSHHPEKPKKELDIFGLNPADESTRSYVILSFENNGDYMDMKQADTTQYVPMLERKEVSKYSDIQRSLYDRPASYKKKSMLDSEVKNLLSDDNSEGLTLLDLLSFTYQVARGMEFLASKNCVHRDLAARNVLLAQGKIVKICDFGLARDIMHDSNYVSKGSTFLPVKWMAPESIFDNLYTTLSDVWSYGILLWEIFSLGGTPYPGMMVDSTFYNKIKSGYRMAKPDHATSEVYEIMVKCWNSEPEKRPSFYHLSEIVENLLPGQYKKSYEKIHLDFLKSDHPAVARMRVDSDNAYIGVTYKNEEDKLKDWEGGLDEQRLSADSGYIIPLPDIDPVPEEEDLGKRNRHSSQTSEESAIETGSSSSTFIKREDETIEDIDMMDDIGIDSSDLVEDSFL

[5] = target: T1, Receptor-interacting serine/threonine-protein kinase 1 (Homo sapiens) (UniProt Q13546); test: Binding affinity to human RIPK1 at 10 uM incubated for 1 hr by kinase binding assay relative to untreated control
T1 sequence (whole entry): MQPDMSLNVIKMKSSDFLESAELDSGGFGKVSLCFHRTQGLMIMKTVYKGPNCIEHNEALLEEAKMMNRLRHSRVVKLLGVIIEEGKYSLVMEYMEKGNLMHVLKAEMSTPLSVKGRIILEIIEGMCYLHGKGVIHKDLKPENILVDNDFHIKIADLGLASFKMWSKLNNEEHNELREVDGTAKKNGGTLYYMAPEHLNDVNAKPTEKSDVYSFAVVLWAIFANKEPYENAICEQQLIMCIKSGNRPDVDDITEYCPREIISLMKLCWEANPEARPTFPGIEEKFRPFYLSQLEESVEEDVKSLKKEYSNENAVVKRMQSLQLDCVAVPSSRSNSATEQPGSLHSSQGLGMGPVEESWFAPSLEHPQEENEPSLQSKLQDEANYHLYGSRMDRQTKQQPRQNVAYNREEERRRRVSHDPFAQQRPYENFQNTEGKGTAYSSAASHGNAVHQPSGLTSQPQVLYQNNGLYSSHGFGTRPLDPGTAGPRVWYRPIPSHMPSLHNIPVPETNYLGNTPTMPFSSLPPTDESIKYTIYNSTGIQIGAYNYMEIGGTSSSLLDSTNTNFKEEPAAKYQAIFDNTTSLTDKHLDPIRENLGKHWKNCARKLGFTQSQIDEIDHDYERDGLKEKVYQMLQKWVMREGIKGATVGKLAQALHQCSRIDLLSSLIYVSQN

NCI/ADR-RES = test: Cytotoxicity against human NCI/ADR-RES cells after 48 hrs by sulforhodamine B assay; assay type: cell-based
[6] = system: Serine/threonine-protein kinase B-raf (Homo sapiens), P15056 [V600E]; test: Binding affinity to human BRAF V600E mutant at 10 uM incubated for 1 hr by kinase binding assay relative to untreated control
Sequence of Serine/threonine-protein kinase B-raf (Homo sapiens), P15056 [V600E] (P15056 whole entry V600E): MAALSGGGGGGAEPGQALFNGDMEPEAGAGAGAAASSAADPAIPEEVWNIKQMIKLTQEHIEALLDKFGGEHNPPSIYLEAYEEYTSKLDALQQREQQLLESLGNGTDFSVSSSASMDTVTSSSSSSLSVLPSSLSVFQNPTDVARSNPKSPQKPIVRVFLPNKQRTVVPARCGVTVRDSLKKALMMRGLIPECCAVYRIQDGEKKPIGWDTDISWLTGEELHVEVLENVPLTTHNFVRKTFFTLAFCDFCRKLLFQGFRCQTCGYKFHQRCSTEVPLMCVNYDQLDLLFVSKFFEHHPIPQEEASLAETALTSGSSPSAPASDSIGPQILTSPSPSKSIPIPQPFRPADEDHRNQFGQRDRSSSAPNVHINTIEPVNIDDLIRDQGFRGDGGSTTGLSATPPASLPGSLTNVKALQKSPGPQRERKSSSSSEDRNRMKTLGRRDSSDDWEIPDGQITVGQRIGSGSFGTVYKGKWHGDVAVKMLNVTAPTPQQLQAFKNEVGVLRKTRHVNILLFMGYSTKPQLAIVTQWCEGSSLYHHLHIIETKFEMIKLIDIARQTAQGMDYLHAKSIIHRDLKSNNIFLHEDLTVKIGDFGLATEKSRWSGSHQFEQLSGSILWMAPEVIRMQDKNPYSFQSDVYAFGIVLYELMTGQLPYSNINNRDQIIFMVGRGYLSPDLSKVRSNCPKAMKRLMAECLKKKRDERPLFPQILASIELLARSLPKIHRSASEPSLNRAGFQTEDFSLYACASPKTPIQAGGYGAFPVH

HCT-116 = test: Growth inhibition of human HCT116 cells after 48 hrs by sulforhodamine B assay; assay type: functional; conditions: HCT-116, 48 h
[7] = target: Casein kinase I isoform epsilon (Homo sapiens) (UniProt P49674); test: Binding affinity to human CSNK1E at 10 uM incubated for 1 hr by kinase binding assay relative to untreated control
Sequence of Casein kinase I isoform epsilon (Homo sapiens) (P49674 whole entry, looked up, canonical isoform): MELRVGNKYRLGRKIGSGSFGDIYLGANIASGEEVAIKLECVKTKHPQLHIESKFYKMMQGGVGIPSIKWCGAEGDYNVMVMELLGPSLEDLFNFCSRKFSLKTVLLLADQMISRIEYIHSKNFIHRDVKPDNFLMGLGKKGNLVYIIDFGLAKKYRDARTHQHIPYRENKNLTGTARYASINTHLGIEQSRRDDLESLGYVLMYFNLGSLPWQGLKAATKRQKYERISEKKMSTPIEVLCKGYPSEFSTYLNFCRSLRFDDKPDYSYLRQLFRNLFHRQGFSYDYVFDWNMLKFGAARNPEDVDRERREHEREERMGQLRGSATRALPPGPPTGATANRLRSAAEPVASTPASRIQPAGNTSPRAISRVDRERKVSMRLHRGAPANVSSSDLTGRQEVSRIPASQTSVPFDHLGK

[8] = target: Macrophage colony-stimulating factor 1 receptor (Homo sapiens) (UniProt P07333); test: Binding affinity to human CSF1R at 10 uM incubated for 1 hr by kinase binding assay relative to untreated control
Sequence of Macrophage colony-stimulating factor 1 receptor (Homo sapiens) (P07333 whole entry): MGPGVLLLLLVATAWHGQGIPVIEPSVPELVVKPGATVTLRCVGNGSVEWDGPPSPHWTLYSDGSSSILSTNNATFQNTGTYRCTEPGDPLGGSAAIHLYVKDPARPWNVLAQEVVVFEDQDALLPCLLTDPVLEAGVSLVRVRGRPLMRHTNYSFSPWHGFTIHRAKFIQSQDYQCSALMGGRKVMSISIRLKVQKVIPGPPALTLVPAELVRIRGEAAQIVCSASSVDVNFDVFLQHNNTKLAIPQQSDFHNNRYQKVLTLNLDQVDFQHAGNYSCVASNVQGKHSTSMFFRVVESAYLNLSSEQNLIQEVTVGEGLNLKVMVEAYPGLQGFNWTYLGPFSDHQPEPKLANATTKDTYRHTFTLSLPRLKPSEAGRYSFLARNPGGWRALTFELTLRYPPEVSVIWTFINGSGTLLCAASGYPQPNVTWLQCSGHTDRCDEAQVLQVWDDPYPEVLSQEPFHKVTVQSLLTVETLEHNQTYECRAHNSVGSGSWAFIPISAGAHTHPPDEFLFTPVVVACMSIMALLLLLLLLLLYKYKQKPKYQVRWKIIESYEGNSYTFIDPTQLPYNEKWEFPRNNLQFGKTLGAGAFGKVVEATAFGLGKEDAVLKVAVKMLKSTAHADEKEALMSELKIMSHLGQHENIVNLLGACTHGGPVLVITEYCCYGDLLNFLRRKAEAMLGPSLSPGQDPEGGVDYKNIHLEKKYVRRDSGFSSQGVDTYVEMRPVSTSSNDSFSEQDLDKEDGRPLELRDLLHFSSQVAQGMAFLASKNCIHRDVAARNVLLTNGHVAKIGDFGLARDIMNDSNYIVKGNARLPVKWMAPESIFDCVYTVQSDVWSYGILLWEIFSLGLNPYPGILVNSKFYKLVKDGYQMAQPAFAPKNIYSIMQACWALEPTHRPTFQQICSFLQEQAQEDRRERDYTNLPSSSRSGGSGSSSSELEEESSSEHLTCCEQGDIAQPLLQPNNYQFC

[9] = system: T2, Receptor-type tyrosine-protein kinase FLT3 (Homo sapiens), P36888 [K663Q]; test: Binding affinity to human FLT3 K663Q mutant at 10 uM incubated for 1 hr by kinase binding assay relative to untreated control
T2 sequence (whole entry): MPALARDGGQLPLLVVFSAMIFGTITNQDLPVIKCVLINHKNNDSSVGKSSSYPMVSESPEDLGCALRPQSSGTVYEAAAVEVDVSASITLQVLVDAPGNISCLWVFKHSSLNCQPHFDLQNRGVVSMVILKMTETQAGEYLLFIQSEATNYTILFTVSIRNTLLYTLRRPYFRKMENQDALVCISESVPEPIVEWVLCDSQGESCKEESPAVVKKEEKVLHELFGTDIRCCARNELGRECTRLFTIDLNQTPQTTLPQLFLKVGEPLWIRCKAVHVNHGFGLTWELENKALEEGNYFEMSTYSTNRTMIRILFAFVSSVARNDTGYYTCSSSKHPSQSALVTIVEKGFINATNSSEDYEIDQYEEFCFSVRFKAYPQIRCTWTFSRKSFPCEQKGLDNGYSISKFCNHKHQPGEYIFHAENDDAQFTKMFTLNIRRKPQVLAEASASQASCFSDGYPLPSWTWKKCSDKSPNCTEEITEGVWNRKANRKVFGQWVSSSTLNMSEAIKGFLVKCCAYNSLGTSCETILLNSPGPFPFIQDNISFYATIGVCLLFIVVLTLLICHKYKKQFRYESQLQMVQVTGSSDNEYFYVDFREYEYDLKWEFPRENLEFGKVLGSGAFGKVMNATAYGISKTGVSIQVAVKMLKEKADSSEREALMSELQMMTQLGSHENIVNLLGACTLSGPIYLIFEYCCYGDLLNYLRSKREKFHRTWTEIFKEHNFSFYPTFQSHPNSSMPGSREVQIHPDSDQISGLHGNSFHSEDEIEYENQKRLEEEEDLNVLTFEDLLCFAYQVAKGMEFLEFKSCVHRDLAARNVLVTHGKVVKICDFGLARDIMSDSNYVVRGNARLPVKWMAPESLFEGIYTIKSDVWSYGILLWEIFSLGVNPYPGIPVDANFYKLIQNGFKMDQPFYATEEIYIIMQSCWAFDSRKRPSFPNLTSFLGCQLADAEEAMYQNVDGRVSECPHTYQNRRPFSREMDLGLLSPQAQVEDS

[10] = target: Receptor-type tyrosine-protein kinase FLT3 (Homo sapiens) (UniProt P36888); test: Inhibition of human FLT3 using gamma-33P-ATP as substrate assessed as enzyme functional activity at 1 uM by scintillation counting relative to untreated control; parameters: scale not given: the % may be the effect or the level left

## CCc1cnc(N2CCN(C(=O)c3ccc(CNc4ncnc5ccccc45)cc3)CC2)nc1
[1]
  Activity: 87%
NCI-H226
  TGI: > 100 µM
[2]
  Activity: 100%
U-251
  LC50: > 100 µM
A498
  LC50: > 100 µM
MCF7
  LC50: > 100 µM
[3]
  Activity: 23%
RXF 393
  LC50: > 100 µM
SNB-75
  LC50: > 100 µM
SF-268
  TGI: 100 µM
TK-10
  LC50: > 100 µM
[4]
  Activity: 100%
[5]
  Activity: > 50%
NCI/ADR-RES
  LC50: > 100 µM
[6]
  Activity: 13%
HCT-116
  TGI: 25 µM
[7]
  Activity: 29%
[8]
  Activity: > 50%
[9]
  Activity: > 50%
[10]
  Activity: 80%

## c1ccc(Cc2cnc(N3CCN(c4ncnc5ccccc45)CC3)nc2)cc1
[1]
  Activity: 90%
NCI-H226
  TGI: 48.4 µM
[2]
  Activity: 75%
U-251
  LC50: 54.1 µM
A498
  LC50: 50.1 µM
MCF7
  LC50: > 100 µM
[3]
  Activity: 26%
RXF 393
  LC50: > 100 µM
SNB-75
  LC50: > 100 µM
SF-268
  TGI: 57.2 µM
TK-10
  LC50: > 100 µM
[4]
  Activity: 20%
[5]
  Activity: 3.5%
NCI/ADR-RES
  LC50: 66.4 µM
[6]
  Activity: > 50%
HCT-116
  TGI: 13.2 µM
[7]
  Activity: 45%
[8]
  Activity: 31%
[9]
  Activity: 4%
[10]
  Activity: 74%

## O=C(c1cccc(Nc2ncnc3ccccc23)c1)N1CCN(c2ncc(Cc3ccccc3)cn2)CC1
[1]
  Activity: 74%
NCI-H226
  TGI: 2.09 µM
[2]
  Activity: 100%
U-251
  LC50: > 100 µM
A498
  LC50: > 100 µM
MCF7
  LC50: 5.62 µM
[3]
  Activity: 22%
RXF 393
  LC50: > 100 µM
SNB-75
  LC50: > 100 µM
SF-268
  TGI: > 100 µM
TK-10
  LC50: 39.81 µM
[4]
  Activity: 100%
[5]
  Activity: 19%
NCI/ADR-RES
  LC50: > 100 µM
[6]
  Activity: > 50%
HCT-116
  TGI: 3.55 µM
[7]
  Activity: 23%
[8]
  Activity: > 50%
[9]
  Activity: > 50%
[10]
  Activity: 95%
